Measurements taken from article PMC4871610 (Cell, 2015).

Legend:
[1] = biological target: T1, CutC (choline TMA lyase) (Proteus mirabilis, UniProt B4EYG1); assay: anaerobic d9-TMA production with purified CutC and CutD, LC/MS/MS; assay type: biochemical
T1 sequence (B4EYG1 1-1142): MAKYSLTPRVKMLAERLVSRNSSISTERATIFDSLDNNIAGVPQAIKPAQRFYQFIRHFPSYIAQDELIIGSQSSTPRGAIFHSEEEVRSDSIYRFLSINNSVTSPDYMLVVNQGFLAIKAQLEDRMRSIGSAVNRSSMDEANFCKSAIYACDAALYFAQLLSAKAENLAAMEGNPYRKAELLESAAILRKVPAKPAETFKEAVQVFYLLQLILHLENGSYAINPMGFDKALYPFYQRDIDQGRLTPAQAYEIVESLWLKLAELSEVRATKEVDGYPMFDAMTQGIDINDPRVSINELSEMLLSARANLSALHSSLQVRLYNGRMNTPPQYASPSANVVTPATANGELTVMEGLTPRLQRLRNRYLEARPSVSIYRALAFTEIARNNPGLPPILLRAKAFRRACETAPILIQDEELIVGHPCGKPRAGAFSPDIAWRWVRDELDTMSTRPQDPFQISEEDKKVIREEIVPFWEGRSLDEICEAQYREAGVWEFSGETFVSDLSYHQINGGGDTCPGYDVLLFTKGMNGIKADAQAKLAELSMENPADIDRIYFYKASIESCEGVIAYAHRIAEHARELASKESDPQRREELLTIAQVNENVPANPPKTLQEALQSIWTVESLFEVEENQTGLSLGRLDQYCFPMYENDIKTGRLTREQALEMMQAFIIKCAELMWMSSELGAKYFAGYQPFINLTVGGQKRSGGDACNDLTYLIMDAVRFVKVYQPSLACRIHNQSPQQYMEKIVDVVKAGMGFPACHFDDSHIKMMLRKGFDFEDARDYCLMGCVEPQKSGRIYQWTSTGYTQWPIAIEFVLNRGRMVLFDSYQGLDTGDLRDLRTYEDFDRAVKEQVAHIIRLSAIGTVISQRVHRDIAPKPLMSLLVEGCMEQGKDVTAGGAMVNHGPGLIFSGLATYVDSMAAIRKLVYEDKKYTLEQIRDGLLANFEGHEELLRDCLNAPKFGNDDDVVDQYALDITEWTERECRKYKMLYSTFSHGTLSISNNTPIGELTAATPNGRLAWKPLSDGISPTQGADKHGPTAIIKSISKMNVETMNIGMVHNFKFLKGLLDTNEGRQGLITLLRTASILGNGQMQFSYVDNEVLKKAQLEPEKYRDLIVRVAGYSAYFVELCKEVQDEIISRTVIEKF
T1 sequence (B4EYG0 1-316 partner): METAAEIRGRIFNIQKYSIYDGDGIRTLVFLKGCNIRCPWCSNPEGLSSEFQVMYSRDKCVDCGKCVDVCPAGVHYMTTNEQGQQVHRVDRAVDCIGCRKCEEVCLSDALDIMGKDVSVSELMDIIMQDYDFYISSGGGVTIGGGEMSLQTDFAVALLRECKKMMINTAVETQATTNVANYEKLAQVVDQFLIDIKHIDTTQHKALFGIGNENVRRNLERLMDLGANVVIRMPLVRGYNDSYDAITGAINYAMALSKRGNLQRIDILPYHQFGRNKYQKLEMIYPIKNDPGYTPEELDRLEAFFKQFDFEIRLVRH

[2] = biological target: T1, CutC (choline TMA lyase); assay: d9-TMA production from d9-choline in cutC/D-transformed E. coli lysate; assay type: cell-based
[3] = biological target: T1, CutC (choline TMA lyase); assay: d9-TMA production from d9-choline in cutC/D-transformed E. coli lysate, LC/MS/MS; assay type: biochemical
[4] = biological target: T2, YeaW (Escherichia coli, UniProt P0ABR7); assay: d9-TMA production by purified YeaW/X, LC/MS/MS; assay type: biochemical
T2 sequence (P0ABR7 1-374): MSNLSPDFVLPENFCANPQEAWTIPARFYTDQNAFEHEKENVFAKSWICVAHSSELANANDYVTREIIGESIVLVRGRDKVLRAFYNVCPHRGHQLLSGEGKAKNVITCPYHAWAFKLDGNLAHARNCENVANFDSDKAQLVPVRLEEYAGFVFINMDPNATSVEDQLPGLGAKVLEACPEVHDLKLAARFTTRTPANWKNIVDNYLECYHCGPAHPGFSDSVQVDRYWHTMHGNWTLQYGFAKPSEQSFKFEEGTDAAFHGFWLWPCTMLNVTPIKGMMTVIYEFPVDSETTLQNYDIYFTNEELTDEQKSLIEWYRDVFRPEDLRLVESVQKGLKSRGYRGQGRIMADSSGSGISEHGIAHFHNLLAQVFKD

[5] = biological target: T1, CutC (choline TMA lyase); assay: d9-TMA production by purified CutC and CutD, LC/MS/MS; assay type: biochemical

CC(C)(C)CCO [DMB, 3,3-dimethyl-1-butanol]
IC50 [1]: ~10 µM

C[P+](C)(C)CCO [P-choline, (2-Hydroxyethyl)(trimethyl)phosphonium]
d9-TMA production from d9-choline in cutC/D-transformed E. coli lysate (activity) [2]: phosphonium analogue of choline (P-choline) showed a unique effect by augmenting cutC/D choline TMA lyase activity

C[Si](C)(C)CCO [TMSi-ETOH, 2-(trimethylsilyl)ethanol]
IC50 [3]: ~10 µM

C[N+](C)(C)CC(O)CC(=O)[O-] (centres unmarked) [carnitine]
d9-TMA production by purified YeaW/X, LC/MS/MS [4]: Purified YeaW/X showed enzymatic cleavage of d9-carnitine

C[N+](C)(C)CCO [choline]
d9-TMA production by purified CutC and CutD, LC/MS/MS [5]: both purified polypeptides showed dose-dependent inhibition in TMA production from either choline or GPC substrates
